As a reminder, the IC50 is the concentration at which inhibition is half-maximal.

For the assay, the target named is PARP1 enzyme (Homo sapiens (Human), UniProt P09874). In words: Inhibitory activity on PARP1 enzyme (chemiluminescence). It is filed as biochemical. As for the experimental part: The inhibitory activity of the compounds on PARP1 enzyme was determined by the chemiluminescence method in the experiment. The experiment was carried out in a 384-well plate. Coating histones in a 384-well plate: 5×histone solution was diluted 5 folds with PBS, added to a 384-well ELISA plate (25 μL per well), and incubated at 4° C. overnight. […] A mixture of PARP reaction biotin-labeled substrate, activated DNA, 10×PARP buffer and water was added (12.5 μL per well). Compound solutions with different concentrations were formulated using the experimental buffer (10% DMSO aqueous solution containing 1.25 mM DTT). The final detection concentration started from 100 nM, with 3-fold dilution and 8 concentrations. The compound solutions were added to the reaction wells of the 384-well plate (2.5 μL per well). 2.5 μL of 10% DMSO aqueous solution containing 1.25 mM DTT was added to the positive control well and blank well (2.5 μL per well). […] The plate was centrifuged at 1000 rpm for 1 minute, and reacted at room temperature for 60 minutes. […] Streptavidin-HRP solution diluted 50 folds with Blocking buffer 3 was added (25 μL per well), and the plate was incubated at room temperature for 30 minutes. […] The luminescence reaction solution obtained by mixing ECL substrate A and ELISA ECL substrate B (1:1) was added (50 μL per well) for reaction. The chemiluminescence values were measured immediately with a BioTek Synergy H1 or Envision instrument.
Sequence of PARP1 enzyme (P09874 whole entry): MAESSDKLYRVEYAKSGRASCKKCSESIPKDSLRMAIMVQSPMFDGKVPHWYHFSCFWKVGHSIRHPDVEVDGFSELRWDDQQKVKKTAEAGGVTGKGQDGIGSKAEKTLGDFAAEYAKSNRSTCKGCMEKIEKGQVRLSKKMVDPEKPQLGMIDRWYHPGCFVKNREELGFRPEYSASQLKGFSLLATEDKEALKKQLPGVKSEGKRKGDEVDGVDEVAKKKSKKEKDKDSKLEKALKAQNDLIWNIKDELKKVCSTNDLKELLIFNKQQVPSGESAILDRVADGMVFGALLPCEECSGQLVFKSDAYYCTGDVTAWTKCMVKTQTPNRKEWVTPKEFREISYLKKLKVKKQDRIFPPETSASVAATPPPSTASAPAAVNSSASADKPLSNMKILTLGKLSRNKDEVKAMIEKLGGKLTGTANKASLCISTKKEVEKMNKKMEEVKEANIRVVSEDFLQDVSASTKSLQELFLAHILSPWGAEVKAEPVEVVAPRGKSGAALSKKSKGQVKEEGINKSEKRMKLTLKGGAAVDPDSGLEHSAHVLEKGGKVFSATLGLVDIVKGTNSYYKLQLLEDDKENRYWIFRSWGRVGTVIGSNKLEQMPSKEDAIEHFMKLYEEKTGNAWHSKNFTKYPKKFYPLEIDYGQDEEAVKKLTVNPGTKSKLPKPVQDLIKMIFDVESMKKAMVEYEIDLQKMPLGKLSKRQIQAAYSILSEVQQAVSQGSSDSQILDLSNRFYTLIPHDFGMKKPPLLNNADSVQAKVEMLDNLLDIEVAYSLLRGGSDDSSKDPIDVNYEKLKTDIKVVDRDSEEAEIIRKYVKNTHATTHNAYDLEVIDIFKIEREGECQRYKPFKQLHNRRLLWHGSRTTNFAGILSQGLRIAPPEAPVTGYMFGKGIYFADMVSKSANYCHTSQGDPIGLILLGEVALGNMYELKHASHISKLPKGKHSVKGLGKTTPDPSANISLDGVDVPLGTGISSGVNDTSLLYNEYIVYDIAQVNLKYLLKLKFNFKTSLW
The chemiluminescence values were measured with a BioTek Synergy H1 or Envision instrument. The inhibition rate was calculated, and the concentration and inhibition rate were fitted to a nonlinear regression curve using Graphpad Prism software to obtain the IC50 value.
Regarding `CCc1cc2ncc(CN3CCN(c4ccc5c(C(=O)NC)ncn5c4)CC3)cc2[nH]c1=O` [Example 80, 6-(4-((7-Ethyl-6-oxo-5,6-dihydro-1,5-naphthyridin-3-yl)methyl)piperazin-1-yl)-N-methylimidazo[1,5-a]pyridine-1-carboxamide], the IC50 is 5 nM.
With `CCc1cc2ncc(CN3CC=C(c4ccc(C(=O)NC)c(F)c4C)CC3)cc2[nH]c1=O` [Example 66, 4-(1-((7-Ethyl-6-oxo-5,6-dihydro-1,5-naphthyridin-3-yl)methyl)-1,2,3,6-tetrahydropyridin-4-yl)-2-fluoro-N,3-dimethylbenzamide], the half-inhibitory concentration (IC50) turned out to be 1.7 nM.
Consider `CCc1cc2ncc(CN3CCN(c4cnc5[nH]ccc5c4)CC3)cc2[nH]c1=O` [Example 23, 7-((4-(1H-Pyrrolo[2,3-b]pyridin-5-yl)piperazin-1-yl)methyl)-3-ethyl-1,5-naphthyridin-2(1H)-one], for which the IC50 was 3.3 nM.
The value for `CCn1c(=O)[nH]c2cc(CN3CC=C(c4ccc(C(=O)NC)nc4F)CC3)ccc2c1=O` [Example 91, 1′-((3-Ethyl-2,4-dioxo-1,2,3,4-tetrahydroquinazolin-7-yl)methyl)-2-fluoro-N-methyl-1′,2′,3′,6′-tetrahydro-[3,4′-bipyridine]-6-carboxamide] was 3 nM.
With `CCc1cc2ncc(CN3CCN(c4ccc5c(c4)CN(C)C5=O)CC3)cc2[nH]c1=O` [Example 6, 3-Ethyl-7-((4-(2-methyl-1-oxoisoindolin-5-yl)piperazin-1-yl)methyl)-1,5-naphthyridin-2(1H)-one] the figure was 2.9 nM.
The value for `CCc1cc2ncc(CN3CCN(c4ccc5c(c4)C(=O)N(C)C5=O)CC3)cc2[nH]c1=O` [Example 79, 5-(4-((7-Ethyl-6-oxo-5,6-dihydro-1,5-naphthyridin-3-yl)methyl)piperazin-1-yl)-2-methylisoindoline-1,3-dione] was 3.3 nM; that for `CCc1cc2ncc(CN3CC=C(c4ccc(C(=O)NC#N)nc4)CC3)cc2[nH]c1=O` [Example 57, N-Cyano-1′-((7-ethyl-6-oxo-5,6-dihydro-1,5-naphthyridin-3-yl)methyl)-1′,2′,3′,6′-tetrahydro-[3,4′-bipyridine]-6-carboxamide] was 2.8 nM; that for `CCc1cc2ncc(CN3CC=C(c4ccc(C(=O)NC)c(F)c4)CC3)cc2[nH]c1=O` [Example 33, 4-(1-((7-Ethyl-6-oxo-5,6-dihydro-1,5-naphthyridin-3-yl)methyl)-1,2,3,6-tetrahydropyridin-4-yl)-2-fluoro-N-methylbenzamide] was 0.91 nM.
For `CCc1cc2ncc(CN3CCN(c4ccc5nc(C)[nH]c5c4)CC3)cc2[nH]c1=O` [Example 24, 3-Ethyl-7-((4-(2-methyl-1H-benzo[d]imidazol-6-yl)piperazin-1-yl)methyl)-1,5-naphthyridin-2(1H)-one], the IC50 stood at 1.7 nM.
The value for `CCC1Oc2ccc(CN3CC=C(c4ccc(C(=O)NC)nc4Cl)CC3)cc2NC1=O` (centres unmarked) [Example 87, 2-Chloro-1′-((2-ethyl-3-oxo-3,4-dihydro-2H-benzo[b][1,4]oxazin-6-yl)methyl)-N-methyl-1′,2′,3′,6′-tetrahydro-[3,4′-bipyridine]-6-carboxamide] was 4.9 nM; that for `CCC1Oc2ccc(CN3CC=C(c4ccc(C(=O)NC)nc4C)CC3)cc2NC1=O` (centres unmarked) [Example 88, 1′-((2-Ethyl-3-oxo-3,4-dihydro-2H-benzo[b][1,4]oxazin-6-yl)methyl)-N,2-dimethyl-1′,2′,3′,6′-tetrahydro-[3,4′-bipyridine]-6-carboxamide] was 5 nM.
With `CCc1cc2ncc(CN3CC=C(c4ccc(C(=O)NC)c(F)c4F)CC3)cc2[nH]c1=O` [Example 67, 4-(1-((7-Ethyl-6-oxo-5,6-dihydro-1,5-naphthyridin-3-yl)methyl)-1,2,3,6-tetrahydropyridin-4-yl)-2,3-difluoro-N-methylbenzamide] the figure was 2.1 nM.
The value for `CCc1cc2ncc(CN3CC=C(c4ccc(C(=O)N[C@H]5CCOC5)nc4)CC3)cc2[nH]c1=O` [Example 31, (S)-1′-((7-Ethyl-6-oxo-5,6-dihydro-1,5-naphthyridin-3-yl)methyl)-N-(tetrahydrofuran-3-yl)-1′,2′,3′,6′-tetrahydro-[3,4′-bipyridine]-6-carboxamide] was 1 nM.
For `CCC1Oc2ncc(CN3CC=C(c4ccc(C(=O)NC)nc4C)CC3)cc2NC1=O` (centres unmarked) [Example 86, 1′-((3-Ethyl-2-oxo-2,3-dihydro-1H-pyrido[2,3-b][1,4]oxazin-7-yl)methyl)-N,2-dimethyl-1′,2′,3′,6′-tetrahydro-[3,4′-bipyridine]-6-carboxamide], the IC50 stood at 5.1 nM.
In the case of `CCC1Oc2ncc(CN3CC=C(c4ccc(C(=O)NC)nc4F)CC3)cc2NC1=O` (centres unmarked) [Example 90, 1′-((3-Ethyl-2-oxo-2,3-dihydro-1H-pyrido[2,3-b][1,4]oxazin-7-yl)methyl)-2-fluoro-N-methyl-1′,2′,3′,6′-tetrahydro-[3,4′-bipyridine]-6-carboxamide], the IC50 was found to be 2.7 nM.
Turning to `CCc1cc2ncc(CN3CC=C(c4ccc(C(=O)NC)c(F)c4Cl)CC3)cc2[nH]c1=O` [Example 65, 3-Chloro-4-(1-((7-ethyl-6-oxo-5,6-dihydro-1,5-naphthyridin-3-yl)methyl)-1,2,3,6-tetrahydropyridin-4-yl)-2-fluoro-N-methylbenzamide], the half-maximal inhibitory concentration (IC50) came to 2.2 nM.
The value for `CCc1cc2ncc(CN3CC=C(c4ccc(C(=O)NC)nc4OC)CC3)cc2[nH]c1=O` [Example 34, 1′-((7-Ethyl-6-oxo-5,6-dihydro-1,5-naphthyridin-3-yl)methyl)-2-methoxy-N-methyl-1′,2′,3′,6′-tetrahydro-[3,4′-bipyridine]-6-carboxamide] was 1.6 nM.
With `CCC1Oc2ncc(CN3CC=C(c4ccc(C(=O)NC)nc4Cl)CC3)cc2NC1=O` (centres unmarked) [Example 85, 2-Chloro-1′-((3-ethyl-2-oxo-2,3-dihydro-1H-pyrido[2,3-b][1,4]oxazin-7-yl)methyl)-N-methyl-1′,2′,3′,6′-tetrahydro-[3,4′-bipyridine]-6-carboxamide] the figure was 3.5 nM.
The value for `CCc1cc2ncc(CN3CCN(c4ccc5c(c4)CNC5=O)CC3)cc2[nH]c1=O` [Example 17, 3-Ethyl-7-((4-(1-oxoisoindolin-5-yl)piperazin-1-yl)methyl)-1,5-naphthyridin-2(1H)-one] was 4.5 nM; that for `CCc1cc2ncc(CN3CC=C(c4ccc(C(=O)N[C@@H]5CCOC5)nc4)CC3)cc2[nH]c1=O` [Example 32, (R)-1′-((7-Ethyl-6-oxo-5,6-dihydro-1,5-naphthyridin-3-yl)methyl)-N-(tetrahydrofuran-3-yl)-1′,2′,3′,6′-tetrahydro-[3,4′-bipyridine]-6-carboxamide] was 1 nM.

These data come from US20240228490A1, “HETEROCYCLIC DERIVATIVE INHIBITOR AND PREPARATION METHOD THEREFOR AND APPLICATION THEREOF” (Shanghai Hansoh Biomedical Co., Ltd., priority 2021, published 2024).
